Data on three substances can be found in patent US12269901B2, “Peptide and use thereof” (ENSOL BIOSCIENCES, INC., priority 2019, dated 2025).

For test [1], the system named is IFN-γ. The test can be described thus: IFN-γ mRNA expression in anti-CD28-stimulated splenocytes (RT-PCR, relative to GAPDH). Type of test: cell-based. The following applies: splenocytes of diabetic NOD mice, 2 ng/ml anti-mouse CD28, 100 mM peptide, 3 hr. As to the method:
(§1) The end of the tail of the experimental animals prepared as in Example 2-1 was wounded once a week, and a drop of blood therefrom was measured for blood glucose levels using a glucometer (Roche, Accu-CHEK Performa). The blood glucose levels were confirmed to be “high” (600 mg/dL or more), the mice were subjected to cervical dislocation, and the spleen was extracted therefrom. A cell strainer (BD, 352350) was placed on a 50 ml tube, and the extracted spleen tissue was passed through the cell strainer using the plunger end of a syringe, after which the tube containing the strained cells was added with HBSS (Hanks' Balanced Salt solution) so that the cells were washed with water, followed by centrifugation (1,000 rpm, 5 min) to remove the supernatant. The cells were suspended with 1 ml of HBSS, added with 10 ml of 1×RBC lysis buffer (Ebioscience, 00-4333-57), mixed with gentle stirring, allowed to stand in ice for 5 min, and then centrifuged (1,000 rpm, 5 min) to remove the supernatant. The resulting cells were added with 10 ml of a RBC lysis buffer once more, allowed to stand in ice for 5 min, further centrifuged (1,000 rpm, 5 min) to remove the supernatant, and then washed two times with 10 ml of HBSS. After final centrifugation (1,000 rpm, 5 min), the cells were suspended with 1 ml of HBSS, 50 μl of the cells were diluted with a trypan blue solution at 1:1, and the number of cells was counted using a hemocytometer. […]
(§2) Thereafter, the cells were centrifuged (1,000 rpm, 5 min) to remove the supernatant, lysed through pipetting with 5 ml of TRIzol (Invitrogen, 15596-018), and allowed to stand at room temperature for 5 min. […] RNA was eluted by adding 30 μl of DEPC-treated water and quantified.
(§3) cDNA was synthesized through the experimental procedure for a cDNA synthesis kit (ELPISbio, EBT-1512) using […] of the quantified RNA. Then, in accordance with the procedure for a PCR (Polymerase Chain Reaction) kit (Solgent, SEF01-M50H), cDNA of each cytokine (IFN-γ, TNF-α, TGF-β1) and a housekeeping gene GAPDH for quantitative determination of changes in cytokine expression were amplified. […]

The subject of test [2] is TNF-α. The test can be described thus: TNF-α mRNA expression in anti-CD28-stimulated splenocytes (RT-PCR, relative to GAPDH). To be noted: splenocytes of diabetic NOD mice, 2 ng/ml anti-mouse CD28, 100 mM peptide, 3 hr. Type of test: cell-based. The procedure: as §1, §2, §3
Test [3] has as its system TGF-β1. Put plainly: TGF-β1 mRNA expression in anti-CD28-stimulated splenocytes (RT-PCR, relative to GAPDH). Type of test: cell-based. The following applies: splenocytes of diabetic NOD mice, 2 ng/ml anti-mouse CD28, 100 mM peptide, 72 hr. The procedure:
as §1, §2, §3

Test [4] concerns NOD/ShiLtJ mice with type 1 diabetes (insulitis). The test can be described thus: Effect of inhibiting or reducing development of insulitis (insulitis score of pancreatic islets, H&E). To be noted: NOD mice with type 1 diabetes, 5 mg/kg SC every morning and evening for 14 days, pancreas on 14th day. Type of test: in vivo, mouse. An excerpt:
(§4) The experimental animals were 8-week-old female NOD/ShiLtJ (Jackson Lab). NOD (Non-obese diabetic) mice are animal models of insulitis and type 1 diabetes. In these animals, it is known that type 1 diabetes occurs at 18 weeks of age on average and 90% of incidence thereof occurs by 30 weeks of age. All animals were housed under SPF barrier conditions. This study was approved by the Institutional Animal Care and Use Committee of Osong Medical Innovation Foundation Laboratory Animal Center (Kbio-IACUC-2018-066). The acclimation period was 1 week, and the light/dark cycle was 12 hr ([…]). The temperature was 20±2° C., and the relative humidity was 60 to 80%. Since the incidence of diabetes may be inhibited by intestinal microorganisms, water, the pH of which was adjusted to 2.8-3.2 using HCl, was supplied to the experimental animals.
The end of the tail of the experimental animals prepared above was wounded once a week and a drop of blood therefrom was measured for blood glucose levels using a glucometer (Roche, Accu-CHEK Performa). When the blood glucose levels were measured to be 250 mg/dL or more and the blood glucose levels remeasured on the third day thereafter was also 250 mg/dL or more, type 1 diabetes was considered to have occurred, and the experiment was conducted.
Two experimental animals with type 1 diabetes were selected as the treatment group of Example 1, and were subcutaneously (SC) administered with 100 μl of the peptide of Example 1 (5 mg/kg). The administration was performed every morning and evening for 14 days, and the blood glucose levels were measured using a glucometer. […] On the 14th day, one experimental animal, the blood glucose levels of which were measured to be less than 250 mg/dL, was selected as a normal group, and was used to compare the insulitis scores of experimental animals with type 1 diabetes and experimental animals without type 1 diabetes.
After measurement of the blood glucose levels on the 14th day, the pancreas was removed from the experimental animals and fixed in 10% […] buffered formalin (10% NBF, Sigma, HT5011) to manufacture a paraffin block. […] For the treatment group of Example 1, the number of islets in two animals was measured, individual islets were classified depending on the stage of insulitis to thus determine the insulitis score, and the number of islets corresponding to each insulitis stage among the total number of islets was represented as a percentage. For the negative control group and the normal group, the insulitis scores were determined as in the treatment group of Example 1, after which the number of islets corresponding to each insulitis stage among the total number of islets was represented as a percentage. […]

For test [5], the system named is NOD/ShiLtJ mice with type 1 diabetes. Put plainly: Effect of lowering blood glucose levels in animals with type 1 diabetes. Type of test: in vivo, mouse. The following applies: NOD mice with type 1 diabetes, 5 mg/kg SC every morning and evening, up to 14 days, two animals; negative control (PBS) continuously increased.
From the text: as §4
The end of the tail of the experimental animals prepared above was wounded once a week and a drop of blood therefrom was measured for blood glucose levels using a glucometer (Roche, Accu-CHEK Performa). When the blood glucose levels were measured to be 250 mg/dL or more and the blood glucose levels remeasured on the third day thereafter was also 250 mg/dL or more, type 1 diabetes was considered to have occurred, and the experiment was conducted. […]

Turning to GAGAGY [Comparative Example 1], in test [1], the “IFN-γ mRNA expression level compared to the negative control group (anti-CD28)” value is reported as “did not greatly change”. Besides, the “TNF-α mRNA expression level compared to the negative control group (anti-CD28)” value in test [2] is listed as “did not greatly change”. In addition, the “TGF-β1 mRNA expression level compared to the negative control group (anti-CD28)” value in test [3] is “did not greatly change”.

For YGAGAG [Comparative Example 2], in test [1], the “IFN-γ mRNA expression level compared to the negative control group (anti-CD28)” value is “did not greatly change”. Also, the “TNF-α mRNA expression level compared to the negative control group (anti-CD28)” value in test [2] is “increase”. Moreover, the “TGF-β1 mRNA expression level compared to the negative control group (anti-CD28)” value in test [3] is listed as “did not greatly change”.

As for YGAGAGAGY [Example 1], in test [4], the “percentage of islets in insulitis stage 3 compared to the negative control group” value is “decreased”, the “percentage of islets in stage 0 (no insulitis) compared to the negative control group” value was “approximately doubled”, the “percentage of islets in stage 0 compared to the normal group” value is reported as “higher” and the “percentages of islets in insulitis stages 0-2 compared to the negative control group” value is reported as “increased”. Further, the blood glucose levels entry in test [5] was “decreased significantly and then remained in the normal range”. In addition, in test [1], the “IFN-γ mRNA expression level compared to the negative control group (anti-CD28)” value is “reduced”. In addition, the “TNF-α mRNA expression level compared to the negative control group (anti-CD28)” value in test [2] is reported as “reduced”. The “TGF-β1 mRNA expression level compared to the negative control group (anti-CD28)” value in test [3] is given as “increased”.
